{"source": "paper PMC7870075", "about": "“Physicochemical properties and formulation development of a novel compound inhibiting Staphylococcus aureus biofilm formation” (PLoS ONE, 2021)", "assay": "Solubility in water containing sodium dodecyl sulfate (SDS)", "type": "physicochemical", "conditions": "aqueous with cosolvent or surfactant or cyclodextrin, thermodynamic from solid, 37°C; for solubility at 24 h / solubility at 48 h: 200 rpm; for solubility: mean of 24 and 48 h", "protocol": "The concentration of CCG-211790 in deionized water or aqueous solutions was determined using an Agilent series 1100 HPLC system (Agilent Technologies, Santa Clara, CA, USA) equipped with diode array detector. Sample separation was carried out with a Kinetex C18 column (75 mm × 3 mm, particle size 2.6 μm, Phenomenex Inc., Torrance, CA, USA). The mobile phase of acetonitrile-water (50:50, v/v) was used for chromatographic separation. The flow rate was set to 0.5 mL/min, column temperature to 35°C. The absorption was measured at wavelength 255 nm. The injection volume was 30 μL. The retention time of CCG-211790 was 4.9 min. The method detection limit was 0.02 mg/L. Calibration curves were established giving a correlation coefficient >0.9900. The procedure to determine solubility in water with presence of SDS is based on the Paddle Method as described in the U.S. Pharmacopeia <711> on the in vitro dissolution tests with minor revision. To determine the saturation solubility in water containing SDS, CCG-211790 bulk powder was added in excess (around 5 mg of CCG-211790) to 10 mL of SDS solutions with various concentrations (0.5, 1.0 or 2.0% w/v). After incubation for 24–48 h in a shaking incubator at 37°C and 200 rpm to reach saturation status, aliquot (2 mL) of the incubated sample was filtered through a 0.22 μm Millipore filter (Millipore Corp., Billerica, MA, USA). Solutions passing through the filter were collected (0.5 mL) and were diluted 2-fold with acetonitrile. CCG-211790 concentration in SDS solutions was determined by HPLC analysis.", "key": {"[1]": {"conditions": "0.5% (w/v) SDS solution, 0.5% (w/v) SDS"}, "[2]": {"conditions": "1.0% (w/v) SDS solution, 1.0% (w/v) SDS"}, "[3]": {"conditions": "2.0% (w/v) SDS solution, 2.0% (w/v) SDS"}}, "data": [{"smiles": "COc1ccc2c(c1)-c1nc(SCC(F)(F)F)n(C)c(=O)c1C(C)(C)C2", "note": "[CCG-211790, 9-Methoxy-3,5,5-trimethyl-2-((2,2,2-trifluoroethyl)thio)-5,6-dihydrobenzo[h]quinazolin-4(3H)-one]", "values": [{"measurement": "solubility at 24 h", "setting": "[1]", "value": 32.9, "unit": "µg/mL"}, {"measurement": "solubility at 48 h", "setting": "[1]", "value": 26.8, "unit": "µg/mL"}, {"measurement": "solubility", "setting": "[1]", "value": "29.9 ± 4.3", "unit": "µg/mL"}, {"measurement": "solubility at 24 h", "setting": "[2]", "value": 68.5, "unit": "µg/mL"}, {"measurement": "solubility at 48 h", "setting": "[2]", "value": 63.8, "unit": "µg/mL"}, {"measurement": "solubility", "setting": "[2]", "value": "66.1 ± 3.3", "unit": "µg/mL"}, {"measurement": "solubility at 24 h", "setting": "[3]", "value": 161, "unit": "µg/mL"}, {"measurement": "solubility at 48 h", "setting": "[3]", "value": 150, "unit": "µg/mL"}, {"measurement": "solubility", "setting": "[3]", "value": "156 ± 8.3", "unit": "µg/mL"}]}]}
